Experimental data taken from ChEMBL document CHEMBL1201862, “PubChem BioAssay data set” (2004).
Active and inactive are the calls of the source.

Key:
Staphylococcus aureus = test: Inhibitors of Bacterial Quorum Sensing Structure Activity Relationship (SAR) Analysis: Dose Response Assay. [Related pubchem assays: 700, 527 ]; assay type: functional, organism-based
[1] = luciferase reporter signal suppression in cells – H4 neuroglioma cells, luminescence, dose response (AID 1990); assay type: functional, cell-based
[2] = Luminescence Cell-Based Dose Response HTS to Identify Inhibitors of 5'UTR Stem-Loop Driven Prion Protein mRNA Translation in H4 Neuroglioblastoma Cells. [Related pubchem assays: 1827 (Project Summary), 1813 (Primary HTS)]; assay type: functional
[3] = biological target: T1, Heat shock factor protein 1 (Mus musculus, UniProt P38532); test: decrease of HSF1-responsive luciferase luminescence – cell-based, NIH3T3, dose retest, confirmation (AID 2382); assay type: functional;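 note: NIH3T3 fibroblasts with HSF1-driven luciferase reporter stressed by proteasome inhibitor MG132; luminescence from HSF1-driven luciferase expression after 8 hours of MG132 stress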
T1 sequence (P38532 whole entry): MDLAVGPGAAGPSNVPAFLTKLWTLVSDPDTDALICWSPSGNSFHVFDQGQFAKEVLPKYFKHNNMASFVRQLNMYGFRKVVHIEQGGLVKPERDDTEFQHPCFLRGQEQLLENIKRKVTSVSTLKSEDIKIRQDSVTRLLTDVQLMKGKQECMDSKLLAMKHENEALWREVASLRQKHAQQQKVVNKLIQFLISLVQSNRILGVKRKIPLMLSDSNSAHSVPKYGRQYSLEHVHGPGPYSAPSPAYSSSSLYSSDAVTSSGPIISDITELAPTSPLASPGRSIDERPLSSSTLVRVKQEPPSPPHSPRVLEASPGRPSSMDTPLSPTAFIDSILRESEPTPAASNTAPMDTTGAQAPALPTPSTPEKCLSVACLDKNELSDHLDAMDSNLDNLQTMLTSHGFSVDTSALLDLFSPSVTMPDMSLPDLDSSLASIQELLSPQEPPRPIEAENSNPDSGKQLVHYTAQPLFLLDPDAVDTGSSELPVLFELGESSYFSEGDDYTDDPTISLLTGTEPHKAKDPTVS

[4] = alpha-synuclein stem-loop luciferase translation blockers – H4 neuroglioma cells, luminescence, confirmation (AID 1988); assay type: functional, cell-based
Estrogen receptor = biological target: T2, Estrogen receptor (Homo sapiens, UniProt P03372);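 note: potency for inhibiting coactivator peptide recruitment to the receptor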
T2 sequence (P03372 whole entry): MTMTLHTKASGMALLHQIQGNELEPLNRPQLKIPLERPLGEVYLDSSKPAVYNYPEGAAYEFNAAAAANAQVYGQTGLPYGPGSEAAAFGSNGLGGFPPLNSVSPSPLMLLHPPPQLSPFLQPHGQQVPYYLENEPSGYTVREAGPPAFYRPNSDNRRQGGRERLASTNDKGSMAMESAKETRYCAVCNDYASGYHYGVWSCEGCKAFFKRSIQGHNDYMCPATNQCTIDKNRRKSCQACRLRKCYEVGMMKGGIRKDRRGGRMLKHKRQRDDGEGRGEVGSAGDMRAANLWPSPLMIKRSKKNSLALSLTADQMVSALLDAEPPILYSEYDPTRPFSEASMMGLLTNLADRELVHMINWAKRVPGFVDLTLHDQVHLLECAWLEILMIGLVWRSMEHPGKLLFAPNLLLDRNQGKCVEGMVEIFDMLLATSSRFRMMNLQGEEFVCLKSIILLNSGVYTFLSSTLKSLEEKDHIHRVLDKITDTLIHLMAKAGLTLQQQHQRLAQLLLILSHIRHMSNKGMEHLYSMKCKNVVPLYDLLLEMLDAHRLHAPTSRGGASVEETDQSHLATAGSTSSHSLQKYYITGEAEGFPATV

[5] = biological target: T3, Scavenger receptor class B member 1 (Mus musculus, UniProt Q61009); test: mouse SR-BI DiI-HDL uptake blockers – ldlA[mSR-BI] cells, fluorescence, cherry pick, dose response (AID 493194); assay type: functional, cell-based;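 note: cellular uptake of fluorescent DiI-labeled HDL measured as cell fluorescence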
T3 sequence (Q61009 whole entry): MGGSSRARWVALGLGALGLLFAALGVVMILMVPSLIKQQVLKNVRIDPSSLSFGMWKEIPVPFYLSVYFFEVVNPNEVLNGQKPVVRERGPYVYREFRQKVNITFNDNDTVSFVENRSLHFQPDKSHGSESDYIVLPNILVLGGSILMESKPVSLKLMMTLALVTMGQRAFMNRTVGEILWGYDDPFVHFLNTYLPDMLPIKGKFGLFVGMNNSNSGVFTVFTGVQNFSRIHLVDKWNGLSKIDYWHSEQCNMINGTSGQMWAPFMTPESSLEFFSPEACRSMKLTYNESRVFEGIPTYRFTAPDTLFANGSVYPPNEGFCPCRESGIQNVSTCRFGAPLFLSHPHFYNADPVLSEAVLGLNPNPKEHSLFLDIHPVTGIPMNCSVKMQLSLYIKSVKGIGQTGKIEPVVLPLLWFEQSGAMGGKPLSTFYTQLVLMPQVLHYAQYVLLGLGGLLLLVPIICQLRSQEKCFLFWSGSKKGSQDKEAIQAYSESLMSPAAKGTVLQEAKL

[6] = reduction of Shn3 3'UTR-driven luciferase in osteoblasts – cell-based, Clone20 osteoblasts, firefly luciferase, cherry-picked, dose response (AID 624132); assay type: functional;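 note: firefly luciferase luminescence from reporter carrying the Shn3 3'UTR in osteoblasts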
[7] = loss of viability in HepG2 cells – cell-based, CellTiter-Glo, cherry-picked, cytotoxicity control for Shn3 inhibitor project, dose response (AID 624134); assay type: functional
[8] = non-specific 3'UTR reporter inhibition in Clone20-Shn3RL – cell-based, Renilla luciferase, cherry-picked, counter-screen for Shn3 inhibitor project, dose response (AID 624133); assay type: functional
Protein Rev = Protein Rev (Human immunodeficiency virus type 1 group M subtype B (isolate HXB2)(HIV-1), UniProt P04618); test: blockers of HIV Rev/RRE RNA complex – biochemical, fluorescence polarization, HIV-1, dose response (AID 434976); set-up: species or system Human immunodeficiency virus 1
[9] = biological target: Female germline-specific tumor suppressor gld-1 (Caenorhabditis elegans, UniProt Q17339); test: blockers of GLD-1/TGE RNA complex formation – biochemical, fluorescence polarization, C. elegans, dose response (AID 2802);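 note: fluorescence polarization of labeled TGE RNA bound by purified gld-1 protein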
[10] = biological target: T4, RNA-binding protein pos-1 (Caenorhabditis elegans, UniProt G5EF15); test: disruptors of C. elegans POS-1 RNA interaction – biochemical, fluorescence polarization, dose response (AID 1964);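 note: purified POS-1 fused to maltose binding protein made in E. coli; potency of compounds blocking POS-1 binding to fluorescent RNA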
T4 sequence (G5EF15 whole entry): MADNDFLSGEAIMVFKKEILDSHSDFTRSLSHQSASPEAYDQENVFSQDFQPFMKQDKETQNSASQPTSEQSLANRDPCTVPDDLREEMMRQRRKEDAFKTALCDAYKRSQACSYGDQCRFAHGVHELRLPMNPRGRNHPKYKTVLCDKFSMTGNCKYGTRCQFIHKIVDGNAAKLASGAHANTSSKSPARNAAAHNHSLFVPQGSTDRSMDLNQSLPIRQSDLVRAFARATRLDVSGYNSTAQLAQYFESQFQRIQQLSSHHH

[11] = biological target: T5, Zinc finger protein mex-5 (Caenorhabditis elegans, UniProt Q9XUB2); test: potency of MEX-5 RNA-binding blockers – biochemical, C. elegans, fluorescence polarization, dose response (AID 1960)
T5 sequence (Q9XUB2 whole entry): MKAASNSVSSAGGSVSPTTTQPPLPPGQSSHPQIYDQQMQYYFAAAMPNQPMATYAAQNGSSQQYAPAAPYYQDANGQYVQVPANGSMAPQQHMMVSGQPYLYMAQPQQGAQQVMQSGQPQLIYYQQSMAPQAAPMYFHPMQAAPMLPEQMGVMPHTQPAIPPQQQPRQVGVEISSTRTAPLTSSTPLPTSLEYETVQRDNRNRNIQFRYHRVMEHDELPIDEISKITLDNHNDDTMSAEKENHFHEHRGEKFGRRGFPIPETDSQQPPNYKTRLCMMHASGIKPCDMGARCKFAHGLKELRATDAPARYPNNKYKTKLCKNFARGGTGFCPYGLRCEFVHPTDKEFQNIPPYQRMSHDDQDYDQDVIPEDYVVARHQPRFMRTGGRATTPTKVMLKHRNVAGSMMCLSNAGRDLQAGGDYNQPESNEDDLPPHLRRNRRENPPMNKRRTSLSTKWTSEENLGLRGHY

[12] = tested on: Streptococcus sp. 'group A'; test: Streptococcus pyogenes SK(-)GAS viability under kanamycin – luminescence, BacTiterGlo, confirmation, counter-screen for streptokinase expression inhibitor project, dose response (AID 1900); assay type: functional, organism-based
[13] = CCR5-tropic HIV-1 fusion blockers – cell-based, CCR5-tropic Env, dose response (AID 2279); assay type: functional
Streptococcus = test: GAS UMAA2166 growth inhibition – luminescence, BacTiterGlo, counter-screen for streptokinase expression inhibitor project, dose response (AID 1915); assay type: functional, organism-based;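 note: potency for reduction of bacterial viability or growth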
[14] = Cytotoxicity screening for potential Inhibitors of Bacterial Capsule Biogenesis. [Related pubchem assays (depositor defined):AID488970]; assay type: functional
[15] = biological target: T6, Small ubiquitin-related modifier 2 (Homo sapiens, UniProt P61956); test: disruption of SUMO2 interaction with SIM peptide – biochemical, fluorescence polarization, uHTS hits, selectivity assay for SUMO1 interaction inhibitor project, dose response (AID 624385); assay type: functional; settings: read-out: IC50_Mean
T6 sequence (P61956 whole entry): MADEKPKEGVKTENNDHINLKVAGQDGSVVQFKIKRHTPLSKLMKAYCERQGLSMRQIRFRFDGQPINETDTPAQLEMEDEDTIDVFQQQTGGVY

[16] = biological target: T7, Small ubiquitin-related modifier 1 (Homo sapiens, UniProt P63165); test: SUMO1 protein interaction blockers, potency – biochemical, fluorescence polarization, uHTS hits, dose response (AID 624382); assay type: functional; settings: read-out: IC50_Mean
T7 sequence (P63165 whole entry): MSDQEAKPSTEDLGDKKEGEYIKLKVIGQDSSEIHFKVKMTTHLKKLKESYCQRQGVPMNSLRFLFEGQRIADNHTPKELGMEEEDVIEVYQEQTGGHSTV

[17] = biological target: T6, Small ubiquitin-related modifier 2; test: SUMO2 binding disruption by SUMO1 hits – biochemical, FRET, human SUMO2, uHTS hits, selectivity assay for SUMO1 interaction inhibitor project, dose response (AID 624384); assay type: functional; settings: read-out: IC50_Mean
[18] = biological target: T7, Small ubiquitin-related modifier 1; test: SUMO1 protein-protein binding blockers, potency – biochemical, FRET, dose response (AID 624383); assay type: functional; settings: read-out: IC50_Mean
Bcl-2-like protein 10 = Bcl-2-like protein 10 (Homo sapiens, UniProt Q9HD36); test: Bcl-B/TR3 peptide binding disruption – biochemical, fluorescence polarization, FITC-TR3 peptide, selectivity assay for Bfl-1 inhibitor project, primary screen (AID 748);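 note: fluorescence polarization from a fluorescein-labelled TR3 peptide binding purified Bcl-B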
Bcl-2-like protein 10, sequence (Q9HD36 whole entry): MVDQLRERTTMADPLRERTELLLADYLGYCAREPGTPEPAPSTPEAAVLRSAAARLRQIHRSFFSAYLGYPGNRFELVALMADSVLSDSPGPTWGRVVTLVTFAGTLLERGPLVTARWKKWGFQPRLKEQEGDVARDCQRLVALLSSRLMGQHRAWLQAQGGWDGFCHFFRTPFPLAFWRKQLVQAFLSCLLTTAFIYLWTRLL

Estrogen receptor beta = Estrogen receptor beta (Homo sapiens, UniProt Q92731); test: blockers of SRC-3 recruitment to ERβ – biochemical, ELISA, streptavidin-HRP readout, orthogonal assay, confirmation (AID 1060)
[19] = biological target: Lysosomal acid glucosylceramidase (Homo sapiens, UniProt P04062); test: Dose response cell-based high throughput screening assay to identify enhancers of beta-glucosidase activity. [Related pubchem assays: 784 ]; assay type: functional
[20] = biological target: Melanin-concentrating hormone receptor 1 (Homo sapiens, UniProt Q99705); test: Fluorescence-based counterscreen for antagonists of the G-protein coupled receptor 7 (GPR7): cell-based high throughput dose response assay to identify antagonists of the melanin-concentrating hormone receptor 1 (MCHR1).; assay type: functional
Melanin-concentrating hormone receptor 1, sequence (Q99705 whole entry): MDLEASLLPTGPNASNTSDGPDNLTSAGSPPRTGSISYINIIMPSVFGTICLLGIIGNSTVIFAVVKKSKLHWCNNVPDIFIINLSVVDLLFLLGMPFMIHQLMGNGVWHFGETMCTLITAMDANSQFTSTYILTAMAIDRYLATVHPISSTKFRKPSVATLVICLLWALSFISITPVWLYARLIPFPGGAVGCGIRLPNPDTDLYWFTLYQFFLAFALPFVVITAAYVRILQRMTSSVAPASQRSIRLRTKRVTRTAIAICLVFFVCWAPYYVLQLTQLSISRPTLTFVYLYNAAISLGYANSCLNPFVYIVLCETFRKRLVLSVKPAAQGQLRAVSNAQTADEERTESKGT

Cytochrome P450 2D6 = Cytochrome P450 2D6 (Homo sapiens, UniProt P10635);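 note: CYP2D6 member of a cytochrome P450 panel assay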
[21] = biological target: Voltage-gated N-type calcium channel alpha-1B subunit/Amyloid beta A4 precursor protein-binding family A member 1 (Homo sapiens, UniProt Q00975+Q02410); test: disruptors of Mint-PDZ/N-type channel peptide interaction – biochemical, HTRF, set 2, SAR follow-up (AID 434980); assay type: functional
Voltage-gated N-type calcium channel alpha-1B subunit/Amyloid beta A4 precursor protein-binding family A member 1, sequence (Q00975 whole entry): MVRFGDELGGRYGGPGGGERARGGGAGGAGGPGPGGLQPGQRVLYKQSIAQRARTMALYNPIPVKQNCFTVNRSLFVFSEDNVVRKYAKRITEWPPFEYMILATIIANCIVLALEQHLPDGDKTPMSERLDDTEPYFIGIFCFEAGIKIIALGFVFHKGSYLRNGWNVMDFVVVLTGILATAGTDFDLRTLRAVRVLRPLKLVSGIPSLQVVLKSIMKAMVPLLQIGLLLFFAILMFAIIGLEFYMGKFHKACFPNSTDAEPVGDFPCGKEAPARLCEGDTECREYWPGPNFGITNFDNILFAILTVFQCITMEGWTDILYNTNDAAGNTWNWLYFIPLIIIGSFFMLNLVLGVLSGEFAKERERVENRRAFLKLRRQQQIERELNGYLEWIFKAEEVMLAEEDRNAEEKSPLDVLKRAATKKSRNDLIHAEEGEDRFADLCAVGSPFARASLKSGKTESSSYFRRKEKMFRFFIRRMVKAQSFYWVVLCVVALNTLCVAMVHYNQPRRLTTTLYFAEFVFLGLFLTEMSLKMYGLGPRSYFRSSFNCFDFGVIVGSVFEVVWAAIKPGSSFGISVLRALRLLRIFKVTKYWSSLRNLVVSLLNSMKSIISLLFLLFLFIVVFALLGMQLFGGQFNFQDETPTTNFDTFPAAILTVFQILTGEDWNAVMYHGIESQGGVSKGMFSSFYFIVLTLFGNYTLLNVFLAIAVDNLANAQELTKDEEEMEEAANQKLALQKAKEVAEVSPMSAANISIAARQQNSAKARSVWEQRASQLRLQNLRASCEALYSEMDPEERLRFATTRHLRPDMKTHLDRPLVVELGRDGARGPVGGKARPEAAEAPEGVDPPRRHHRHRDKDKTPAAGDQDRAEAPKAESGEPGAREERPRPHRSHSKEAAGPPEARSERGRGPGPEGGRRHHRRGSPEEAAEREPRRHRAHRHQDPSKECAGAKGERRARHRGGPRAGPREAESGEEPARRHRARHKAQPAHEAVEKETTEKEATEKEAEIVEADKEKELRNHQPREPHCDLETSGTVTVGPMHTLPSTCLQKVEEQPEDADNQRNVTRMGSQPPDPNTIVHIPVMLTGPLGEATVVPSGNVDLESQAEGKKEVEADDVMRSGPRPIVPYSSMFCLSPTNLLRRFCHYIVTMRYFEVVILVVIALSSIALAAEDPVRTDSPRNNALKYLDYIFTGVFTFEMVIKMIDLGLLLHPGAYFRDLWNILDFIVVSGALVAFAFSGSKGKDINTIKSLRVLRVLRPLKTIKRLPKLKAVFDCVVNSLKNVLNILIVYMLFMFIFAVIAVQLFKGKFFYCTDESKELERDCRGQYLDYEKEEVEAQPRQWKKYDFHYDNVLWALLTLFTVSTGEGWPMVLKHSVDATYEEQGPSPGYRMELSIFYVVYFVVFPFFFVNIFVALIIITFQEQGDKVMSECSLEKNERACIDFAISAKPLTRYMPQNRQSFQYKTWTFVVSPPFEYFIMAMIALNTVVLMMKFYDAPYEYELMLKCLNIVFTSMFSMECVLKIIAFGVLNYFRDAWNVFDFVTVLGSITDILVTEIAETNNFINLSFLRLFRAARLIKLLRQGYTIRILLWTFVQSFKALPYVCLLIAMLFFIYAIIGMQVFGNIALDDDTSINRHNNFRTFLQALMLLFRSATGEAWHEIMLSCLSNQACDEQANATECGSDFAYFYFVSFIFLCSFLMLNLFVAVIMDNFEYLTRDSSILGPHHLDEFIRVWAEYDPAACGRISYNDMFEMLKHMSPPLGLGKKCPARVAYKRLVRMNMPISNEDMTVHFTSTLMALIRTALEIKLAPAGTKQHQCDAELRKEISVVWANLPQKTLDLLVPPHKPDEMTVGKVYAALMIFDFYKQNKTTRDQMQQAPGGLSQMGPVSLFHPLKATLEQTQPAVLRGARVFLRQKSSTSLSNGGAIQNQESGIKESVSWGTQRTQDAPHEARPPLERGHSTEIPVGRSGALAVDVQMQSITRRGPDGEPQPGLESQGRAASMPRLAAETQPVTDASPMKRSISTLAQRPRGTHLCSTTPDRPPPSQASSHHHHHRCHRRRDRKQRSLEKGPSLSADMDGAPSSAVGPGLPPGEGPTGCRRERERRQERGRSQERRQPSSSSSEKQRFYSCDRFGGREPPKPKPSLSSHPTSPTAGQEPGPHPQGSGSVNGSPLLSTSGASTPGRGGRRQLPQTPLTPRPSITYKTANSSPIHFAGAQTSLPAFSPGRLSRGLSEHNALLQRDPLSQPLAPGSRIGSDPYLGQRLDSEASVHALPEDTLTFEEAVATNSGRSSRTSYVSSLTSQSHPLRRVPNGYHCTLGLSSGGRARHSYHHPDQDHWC
Voltage-gated N-type calcium channel alpha-1B subunit/Amyloid beta A4 precursor protein-binding family A member 1, sequence (Q02410 whole entry): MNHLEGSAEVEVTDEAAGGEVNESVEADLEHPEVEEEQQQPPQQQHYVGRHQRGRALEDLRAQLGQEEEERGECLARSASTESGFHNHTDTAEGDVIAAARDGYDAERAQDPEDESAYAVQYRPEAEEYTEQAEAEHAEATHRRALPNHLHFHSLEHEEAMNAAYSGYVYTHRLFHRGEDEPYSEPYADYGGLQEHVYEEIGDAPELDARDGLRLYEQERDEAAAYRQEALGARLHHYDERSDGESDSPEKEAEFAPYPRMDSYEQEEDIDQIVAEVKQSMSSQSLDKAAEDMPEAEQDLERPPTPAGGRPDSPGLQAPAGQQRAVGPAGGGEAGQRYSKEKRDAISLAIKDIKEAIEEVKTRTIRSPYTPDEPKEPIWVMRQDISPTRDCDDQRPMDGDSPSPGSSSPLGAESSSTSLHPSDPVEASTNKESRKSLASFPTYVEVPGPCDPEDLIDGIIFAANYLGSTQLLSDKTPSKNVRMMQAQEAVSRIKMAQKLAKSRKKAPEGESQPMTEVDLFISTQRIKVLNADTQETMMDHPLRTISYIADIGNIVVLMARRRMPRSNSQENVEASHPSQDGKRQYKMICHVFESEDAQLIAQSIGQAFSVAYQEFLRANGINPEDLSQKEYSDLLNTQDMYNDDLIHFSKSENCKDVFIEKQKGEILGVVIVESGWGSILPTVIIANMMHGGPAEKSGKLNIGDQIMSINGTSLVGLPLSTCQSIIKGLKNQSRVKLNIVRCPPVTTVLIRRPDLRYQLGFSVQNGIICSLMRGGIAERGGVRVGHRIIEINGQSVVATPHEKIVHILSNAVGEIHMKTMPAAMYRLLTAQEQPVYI

[22] = biological target: T8, Eukaryotic translation initiation factor 2-alpha kinase 3 (Homo sapiens, UniProt Q9NZJ5); test: Dose response cell-based high-throughput screening assay to measure PERK inhibition. [Related pubchem assays: 1416 ]; assay type: functional
T8 sequence (Q9NZJ5 whole entry): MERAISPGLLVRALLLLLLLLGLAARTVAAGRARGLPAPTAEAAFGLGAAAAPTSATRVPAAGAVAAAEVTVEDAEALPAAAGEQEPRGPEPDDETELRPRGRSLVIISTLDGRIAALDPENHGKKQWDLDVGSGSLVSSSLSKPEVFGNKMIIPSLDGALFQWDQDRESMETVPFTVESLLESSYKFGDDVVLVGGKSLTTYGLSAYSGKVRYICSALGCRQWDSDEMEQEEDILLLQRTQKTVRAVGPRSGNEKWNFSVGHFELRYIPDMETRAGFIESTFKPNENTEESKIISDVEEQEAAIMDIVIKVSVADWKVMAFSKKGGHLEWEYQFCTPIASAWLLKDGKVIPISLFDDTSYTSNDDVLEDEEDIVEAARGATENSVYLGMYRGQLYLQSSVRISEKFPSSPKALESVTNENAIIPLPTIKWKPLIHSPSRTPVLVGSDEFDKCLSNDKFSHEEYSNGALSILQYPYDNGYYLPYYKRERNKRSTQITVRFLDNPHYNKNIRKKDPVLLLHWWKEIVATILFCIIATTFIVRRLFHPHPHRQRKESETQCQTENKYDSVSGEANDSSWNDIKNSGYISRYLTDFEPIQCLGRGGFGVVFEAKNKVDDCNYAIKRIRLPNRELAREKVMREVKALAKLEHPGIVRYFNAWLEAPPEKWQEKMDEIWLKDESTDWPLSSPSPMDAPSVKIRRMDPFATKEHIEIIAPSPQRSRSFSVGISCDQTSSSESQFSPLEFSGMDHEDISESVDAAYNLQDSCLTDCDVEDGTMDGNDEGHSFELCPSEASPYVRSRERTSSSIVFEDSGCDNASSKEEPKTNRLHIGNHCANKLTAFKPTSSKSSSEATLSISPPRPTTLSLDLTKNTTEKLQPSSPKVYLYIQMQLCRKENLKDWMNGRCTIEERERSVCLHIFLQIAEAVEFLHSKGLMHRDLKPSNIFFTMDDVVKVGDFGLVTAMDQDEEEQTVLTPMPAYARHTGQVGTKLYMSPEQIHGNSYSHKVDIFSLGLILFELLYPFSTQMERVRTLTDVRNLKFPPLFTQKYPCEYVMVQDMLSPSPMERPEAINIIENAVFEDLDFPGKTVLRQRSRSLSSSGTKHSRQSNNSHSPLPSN

[23] = biological target: T8, Eukaryotic translation initiation factor 2-alpha kinase 3; test: Counterscreen assay for PERK inhibitors: Dose response cell-based high throughput screening assay to measure inhibition of PERK at 6 hours. [Related pubchem assays: 1522, 1416 ]; assay type: functional

## N#Cc1c(NC(=O)CN2C(=O)c3ccccc3C2=O)oc(-c2ccccc2)c1-c1ccccc1
Staphylococcus aureus
  IC50: 1.99 µM (active)

## CCOc1cc(N2CCOCC2)c(OCC)cc1NC(=O)c1cc(-c2ccco2)nc2ccccc12
[1]
  EC50: > 120 µM (not active)
[2]
  EC50: > 120 µM (not active)
[3]
  EC50: 1.21 µM (active)
[4]
  EC50: 7.84 µM (active)
Estrogen receptor
  IC50: 14.7 µM (active)
[5]
  AC50: 46.2 µM (active)
[6]
  AC50: 8.94 µM (active)
[7]
  AC50: 53.5 µM (active)
[8]
  AC50: 9.78 µM (active)

## CCCn1c(N)c(N(CCOC)C(=O)Cc2ccc(S(=O)(=O)N3CCOCC3)s2)c(=O)[nH]c1=O
Protein Rev
  IC50: 39.6 µM (not active)
[9]
  IC50: 16.2 µM (inactive)
[10]
  EC50: > 300 µM (not active)
[11]
  EC50: > 300 µM (not active)

## O=C(COc1ccc(Cl)cc1Cl)Nc1ccc(C(=O)Nc2ccccc2C(=O)O)cc1
[12]
  EC50: 3.72 µM (active)
[13]
  IC50: > 50 µM (active)
Streptococcus
  EC50: > 150 µM (not active)
[14]
  CC50: 45.3 µM (active)
[15]
  IC50: 13.3 µM (active)
[16]
  IC50: 2.7 µM (active)
[17]
  IC50: 48.1 µM (inactive)
[18]
  IC50: 11.3 µM (active)

## Cc1cc(C)n2nc(C(=O)OCC(=O)c3cc(C)n(C)c3C)nc2n1
Bcl-2-like protein 10
  IC50: 24.4 µM (active)
Estrogen receptor beta
  IC50: > 50 µM (not active)

## CC(C)CCn1nnnc1C(c1ccccc1)N1CCC(C(N)=O)CC1 (stereo not given)
[19]
  EC50: > 10 µM (not active)

## COC(=O)[C@@]1(Cc2ccc(F)cc2)[C@H]2c3cc(C(=O)N(C)C)n(Cc4ccccc4)c3C[C@H]2CN1C(=O)c1ccccc1
[20]
  IC50: 11.1 µM (not active)
Cytochrome P450 2D6
  AC50: 20 µM (inconclusive)

## CN(C)CCNC(=O)c1cc(-c2ccco2)nc2ccccc12
[21]
  IC50: > 56.8 µM (inactive)

## CCN1CC(=O)Nc2cc(S(=O)(=O)N3CCOCC3)ccc21
[22]
  EC50: > 55.7 µM (not active)
[23]
  EC50: > 55.7 µM (not active)
